Experimental data from PubChem BioAssay AID248 (DTP/NCI, 2004).
“And” between values parts separate entries of the source, which are not always exact repeats. Equal values may be shown once. Toxic doses and inconclusive results are not listed.

Tested on: L1210 leukemia ip in BDF1 mice, survival T/C
Assay: NCI In Vivo Anticancer Drug Screen. Data for tumor model L1210 Leukemia (intraperitoneal) in B6D2F1 (BDF1) mice
Conditions: higher = longer survival
Outline: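 Survival endpoint. Drug-treated group vs vehicle group, expressed as T divided by C. Tumor passaged by transplantation.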

[1] = endpoint: mean survival time, dose: 200.0 mg/kg/injection, schedule: Q04DX003 (ip), vehicle: saline with Tween-80
[2] = endpoint: mean survival time, dose: 100.0 mg/kg/injection, schedule: Q04DX002 (ip), vehicle: Klucel (hydroxypropylcellulose) (HPC)
[3] = endpoint: mean survival time, dose: 200.0 mg/kg/injection, schedule: Q04DX002 (ip), vehicle: Klucel (hydroxypropylcellulose) (HPC)
[4] = endpoint: mean survival time, dose: 400.0 mg/kg/injection, schedule: Q04DX002 (ip), vehicle: Klucel (hydroxypropylcellulose) (HPC)
[5] = endpoint: mean survival time, dose: 100.0 mg/kg/injection, schedule: Q01DX001 (ip), vehicle: Klucel (hydroxypropylcellulose) (HPC)
[6] = endpoint: mean survival time, dose: 200.0 mg/kg/injection, schedule: Q01DX001 (ip), vehicle: Klucel (hydroxypropylcellulose) (HPC)
[7] = endpoint: mean survival time, dose: 400.0 mg/kg/injection, schedule: Q01DX001 (ip), vehicle: Klucel (hydroxypropylcellulose) (HPC)
[8] = endpoint: mean survival time, dose: 100.0 mg/kg/injection, schedule: Q01DX009 (ip), vehicle: Klucel (hydroxypropylcellulose) (HPC)
[9] = endpoint: mean survival time, dose: 100.0 mg/kg/injection, schedule: Q04DX003 (ip), vehicle: Klucel (hydroxypropylcellulose) (HPC)
[10] = endpoint: mean survival time, dose: 200.0 mg/kg/injection, schedule: Q01DX009 (ip), vehicle: Klucel (hydroxypropylcellulose) (HPC)
[11] = endpoint: mean survival time, dose: 200.0 mg/kg/injection, schedule: Q04DX003 (ip), vehicle: Klucel (hydroxypropylcellulose) (HPC)
[12] = endpoint: mean survival time, dose: 400.0 mg/kg/injection, schedule: Q04DX003 (ip), vehicle: Klucel (hydroxypropylcellulose) (HPC)
[13] = endpoint: mean survival time, dose: 50.0 mg/kg/injection, schedule: Q01DX009 (ip), vehicle: Klucel (hydroxypropylcellulose) (HPC)

SMILES: COC(=O)c1ccccc1C(=O)O
- T/C (endpoint: mean survival time, dose: 100.0 mg/kg/injection, schedule: Q04DX003 (ip), vehicle: saline with Tween-80): 101 % of control
- T/C [1]: 93 % of control

SMILES: NC(N)=N/N=C(/c1ccccc1)c1ccccc1N
- T/C (endpoint: mean survival time, dose: 15.0 mg/kg/injection, schedule: Q01DX Z (ip), vehicle: methylcellulose (MC)): 105 % of control
- T/C (endpoint: mean survival time, dose: 30.0 mg/kg/injection, schedule: Q01DX Z (ip), vehicle: methylcellulose (MC)): 102 % of control
- T/C (endpoint: mean survival time, dose: 60.0 mg/kg/injection, schedule: Q01DX Z (ip), vehicle: methylcellulose (MC)): 105 % of control
- T/C (endpoint: mean survival time, dose: 120.0 mg/kg/injection, schedule: Q01DX Z (ip), vehicle: methylcellulose (MC)): 97 % of control
- T/C (endpoint: mean survival time, dose: 120.0 mg/kg/injection, schedule: Q01DX Z (oral), vehicle: methylcellulose (MC)): 88 % of control
- T/C (endpoint: mean survival time, dose: 240.0 mg/kg/injection, schedule: Q01DX Z (ip), vehicle: methylcellulose (MC)): 88 % of control
- T/C (endpoint: mean survival time, dose: 240.0 mg/kg/injection, schedule: Q01DX Z (oral), vehicle: methylcellulose (MC)): 98 % of control
- T/C (endpoint: mean survival time, dose: 480.0 mg/kg/injection, schedule: Q01DX Z (oral), vehicle: methylcellulose (MC)): 101 % of control

SMILES: CC(=O)OCC1CCC(NC(=O)N(CCCl)N=O)CC1 (configuration not stated)
- T/C (endpoint: mean survival time, dose: 3.0 mg/kg/injection, schedule: Q01DX001 (ip), vehicle: Klucel (hydroxypropylcellulose) (HPC)): 104 % of control
- T/C (endpoint: mean survival time, dose: 5.0 mg/kg/injection, schedule: Q01DX001 (ip), vehicle: Klucel (hydroxypropylcellulose) (HPC)): 114 % of control
- T/C (endpoint: mean survival time, dose: 8.0 mg/kg/injection, schedule: Q01DX001 (ip), vehicle: Klucel (hydroxypropylcellulose) (HPC)): 167 % of control
- T/C (endpoint: mean survival time, dose: 12.0 mg/kg/injection, schedule: Q01DX001 (ip), vehicle: Klucel (hydroxypropylcellulose) (HPC)): 221 % of control
- T/C (endpoint: mean survival time, dose: 18.0 mg/kg/injection, schedule: Q01DX001 (ip), vehicle: Klucel (hydroxypropylcellulose) (HPC)): 270 % of control and 316 % of control
- T/C (endpoint: mean survival time, dose: 26.0 mg/kg/injection, schedule: Q01DX001 (ip), vehicle: Klucel (hydroxypropylcellulose) (HPC)): 316 % of control
- T/C (endpoint: mean survival time, dose: 40.0 mg/kg/injection, schedule: Q01DX001 (ip), vehicle: Klucel (hydroxypropylcellulose) (HPC)): 208 % of control

SMILES: CCOC(=O)c1nnn(-c2cccnc2)c1-c1ccc([N+](=O)[O-])cc1
- T/C [2]: 111 % of control
- T/C [3]: 101 % of control
- T/C [4]: 105 % of control

SMILES: CC(=O)OCC1OC(NC(=O)NCCCl)C(OC(C)=O)C(OC(C)=O)C1OC(C)=O (configuration not stated)
- T/C [5]: 101 % of control
- T/C [6]: 104 % of control
- T/C [7]: 104 % of control

SMILES: S=C(N/N=C/c1ccncc1)Nc1ccccc1
- T/C [5]: 96 % of control
- T/C [8]: 97 % of control and 100 % of control
- T/C [2]: 102 % of control and 91 % of control
- T/C [9]: 103 % of control
- T/C [6]: 100 % of control
- T/C [10]: 108 % of control
- T/C [3]: 98 % of control and 102 % of control
- T/C [11]: 106 % of control
- T/C [7]: 98 % of control
- T/C (endpoint: mean survival time, dose: 400.0 mg/kg/injection, schedule: Q01DX009 (ip), vehicle: Klucel (hydroxypropylcellulose) (HPC)): 94 % of control and 104 % of control
- T/C [4]: 97 % of control and 98 % of control
- T/C [12]: 94 % of control

SMILES: ClCCN(CCCl)c1ccc(/C=C\c2ccnc3ccccc23)cc1
- T/C (endpoint: mean survival time, dose: 100.0 mg/kg/injection, schedule: Q01DX009 (ip), vehicle: carboxymethylcellulose (CMC)): 88 % of control
- T/C (endpoint: mean survival time, dose: 100.0 mg/kg/injection, schedule: Q04DX003 (ip), vehicle: other): 96 % of control
- T/C (endpoint: mean survival time, dose: 200.0 mg/kg/injection, schedule: Q01DX009 (ip), vehicle: other): 90 % of control
- T/C (endpoint: mean survival time, dose: 200.0 mg/kg/injection, schedule: Q04DX003 (ip), vehicle: other): 96 % of control
- T/C (endpoint: mean survival time, dose: 400.0 mg/kg/injection, schedule: Q04DX003 (ip), vehicle: other): 98 % of control

SMILES: COc1cccc2c1C(=O)c1c(O)c3c(c(O)c1C2=O)CC(O)(C(C)=O)CC3OC1CC(NC(=S)Nc2ccccc2)C(O)C(C)O1 (configuration not stated)
- T/C (endpoint: mean survival time, dose: 2.0 mg/kg/injection, schedule: Q04DX003 (ip), vehicle: water): 105 % of control
- T/C (endpoint: mean survival time, dose: 3.12 mg/kg/injection, schedule: Q01DX009 (ip), vehicle: saline with Tween-80): 117 % of control
- T/C (endpoint: mean survival time, dose: 4.0 mg/kg/injection, schedule: Q04DX003 (ip), vehicle: water): 111 % of control
- T/C (endpoint: mean survival time, dose: 6.25 mg/kg/injection, schedule: Q01DX009 (ip), vehicle: saline with Tween-80): 122 % of control
- T/C (endpoint: mean survival time, dose: 8.0 mg/kg/injection, schedule: Q04DX003 (ip), vehicle: water): 106 % of control
- T/C (endpoint: mean survival time, dose: 12.5 mg/kg/injection, schedule: Q01DX009 (ip), vehicle: saline with Tween-80): 123 % of control
- T/C (endpoint: mean survival time, dose: 16.0 mg/kg/injection, schedule: Q04DX003 (ip), vehicle: water): 120 % of control and 123 % of control
- T/C (endpoint: mean survival time, dose: 32.0 mg/kg/injection, schedule: Q04DX003 (ip), vehicle: water): 123 % of control
- T/C (endpoint: mean survival time, dose: 64.0 mg/kg/injection, schedule: Q04DX003 (ip), vehicle: water): 118 % of control
- T/C (endpoint: mean survival time, dose: 125.0 micrograms/kg/injection, schedule: Q04DX003 (ip), vehicle: water): 98 % of control
- T/C (endpoint: mean survival time, dose: 250.0 micrograms/kg/injection, schedule: Q04DX003 (ip), vehicle: water): 103 % of control
- T/C (endpoint: mean survival time, dose: 500.0 micrograms/kg/injection, schedule: Q04DX003 (ip), vehicle: water): 107 % of control
- T/C (endpoint: mean survival time, dose: 1000.0 micrograms/kg/injection, schedule: Q04DX003 (ip), vehicle: water): 102 % of control
- T/C (endpoint: mean survival time, dose: 2000.0 micrograms/kg/injection, schedule: Q04DX003 (ip), vehicle: water): 104 % of control

SMILES: NC(=O)N/N=C\c1ccc(O)cn1
- T/C (endpoint: mean survival time, dose: 100.0 mg/kg/injection, schedule: Q04DX003 (ip), vehicle: acetone): 98 % of control
- T/C (endpoint: mean survival time, dose: 200.0 mg/kg/injection, schedule: Q04DX003 (ip), vehicle: acetone): 93 % of control
- T/C (endpoint: mean survival time, dose: 400.0 mg/kg/injection, schedule: Q04DX003 (ip), vehicle: acetone): 96 % of control

SMILES: CC1(C)CC(C(N)=O)C(C)(C)N1O (configuration not stated)
- T/C (endpoint: mean survival time, dose: 75.0 mg/kg/injection, schedule: Q01DX009 (ip), vehicle: other): 104 % of control
- T/C (endpoint: mean survival time, dose: 150.0 mg/kg/injection, schedule: Q01DX009 (ip), vehicle: other): 101 % of control
- T/C (endpoint: mean survival time, dose: 300.0 mg/kg/injection, schedule: Q01DX009 (ip), vehicle: other): 100 % of control

SMILES: CCCCCCCCCCCCCCCC1=NN(c2ccccc2)C(=O)C1N=Nc1ccccc1 (configuration not stated)
- T/C [9]: 102 % of control
- T/C [11]: 98 % of control
- T/C [12]: 94 % of control

SMILES: O=C(Nc1ccc(Cl)cc1)Nc1ccccc1F
- T/C [1]: 91 % of control
- T/C (endpoint: mean survival time, dose: 400.0 mg/kg/injection, schedule: Q04DX003 (ip), vehicle: saline with Tween-80): 89 % of control

SMILES: C[N+]1(C)CCN(c2ccccc2)CC1
- T/C (endpoint: mean survival time, dose: 9.38 mg/kg/injection, schedule: Q01DX001 (ip), vehicle: saline): 108 % of control
- T/C (endpoint: mean survival time, dose: 18.75 mg/kg/injection, schedule: Q01DX001 (ip), vehicle: saline): 105 % of control

SMILES: O=C(/C=C(\C(=O)c1ccccc1)c1ccccc1)c1ccc(Cl)cc1
- T/C [13]: 103 % of control
- T/C (endpoint: mean survival time, dose: 75.0 mg/kg/injection, schedule: Q01DX001 (ip), vehicle: Klucel (hydroxypropylcellulose) (HPC)): 100 % of control
- T/C [8]: 92 % of control
- T/C (endpoint: mean survival time, dose: 150.0 mg/kg/injection, schedule: Q01DX001 (ip), vehicle: Klucel (hydroxypropylcellulose) (HPC)): 95 % of control
- T/C [10]: 94 % of control
- T/C (endpoint: mean survival time, dose: 300.0 mg/kg/injection, schedule: Q01DX001 (ip), vehicle: Klucel (hydroxypropylcellulose) (HPC)): 108 % of control

SMILES: O=C(c1cccnc1)c1cc(-c2ccccn2)c(=O)n2ccccc12
- T/C (endpoint: median survival time, dose: 25.0 mg/kg/injection, schedule: Q01DX009 (ip), vehicle: saline with Tween-80): 100 % of control
- T/C (endpoint: median survival time, dose: 50.0 mg/kg/injection, schedule: Q01DX009 (ip), vehicle: saline with Tween-80): 108 % of control
- T/C (endpoint: median survival time, dose: 100.0 mg/kg/injection, schedule: Q01DX009 (ip), vehicle: saline with Tween-80): 91 % of control
- T/C (endpoint: median survival time, dose: 200.0 mg/kg/injection, schedule: Q01DX009 (ip), vehicle: saline with Tween-80): 95 % of control
- T/C (endpoint: median survival time, dose: 400.0 mg/kg/injection, schedule: Q01DX009 (ip), vehicle: saline with Tween-80): 91 % of control

SMILES: ON=c1c2ccccc2c2ccccc2c2ccccc12
- T/C (endpoint: mean survival time, dose: 75.0 mg/kg/injection, schedule: Q04DX002 (ip), vehicle: gum acacia): 109 % of control
- T/C (endpoint: mean survival time, dose: 150.0 mg/kg/injection, schedule: Q04DX002 (ip), vehicle: gum acacia): 105 % of control
- T/C (endpoint: mean survival time, dose: 300.0 mg/kg/injection, schedule: Q04DX002 (ip), vehicle: gum acacia): 105 % of control

SMILES: CCN(CCO)CCNc1ccc(CO)c2sc3cc(Cl)ccc3c(=O)c12
- T/C [13]: 91 % of control
- T/C [8]: 96 % of control
- T/C [10]: 91 % of control

SMILES: CCCCCCCCC1NC1CCCCCCCCO (configuration not stated)
- T/C [2]: 103 % of control
- T/C [3]: 103 % of control
- T/C [4]: 100 % of control
